Measurements from ChEMBL document CHEMBL3217594, “Structureactivity relationships of methyl-lysine reader antagonists” (Medchemcomm, 2012).
Active and inactive are the calls of the source. The rule behind the calls is not given here.

How the values were obtained:
[1] = test system: T1, Lethal(3)malignant brain tumor-like protein 1 (Homo sapiens), Q9Y468 [D355N]; details: 5 to 25 uM
T1 sequence (whole entry): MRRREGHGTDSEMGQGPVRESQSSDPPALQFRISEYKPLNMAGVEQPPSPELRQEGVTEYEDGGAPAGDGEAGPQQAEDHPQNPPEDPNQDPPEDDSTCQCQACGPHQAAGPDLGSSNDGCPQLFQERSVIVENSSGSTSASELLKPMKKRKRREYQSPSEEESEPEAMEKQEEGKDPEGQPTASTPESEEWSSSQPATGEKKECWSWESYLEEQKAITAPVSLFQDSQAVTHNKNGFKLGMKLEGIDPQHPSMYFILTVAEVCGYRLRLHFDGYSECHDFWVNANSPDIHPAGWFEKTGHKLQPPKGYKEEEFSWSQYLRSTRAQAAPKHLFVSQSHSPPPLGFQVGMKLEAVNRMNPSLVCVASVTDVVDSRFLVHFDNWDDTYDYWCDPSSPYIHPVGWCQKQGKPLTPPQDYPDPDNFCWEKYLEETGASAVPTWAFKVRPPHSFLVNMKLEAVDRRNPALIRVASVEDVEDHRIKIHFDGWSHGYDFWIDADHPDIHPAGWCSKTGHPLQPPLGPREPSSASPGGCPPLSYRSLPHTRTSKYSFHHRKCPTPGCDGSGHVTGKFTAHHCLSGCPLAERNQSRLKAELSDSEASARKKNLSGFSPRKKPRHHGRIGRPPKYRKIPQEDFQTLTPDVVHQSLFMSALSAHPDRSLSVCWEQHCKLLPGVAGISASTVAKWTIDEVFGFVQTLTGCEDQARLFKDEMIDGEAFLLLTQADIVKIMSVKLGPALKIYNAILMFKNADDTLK
Description: Inhibition of GST-fused L3MBTL1 3xMBT-D355N mutant (unknown origin)/biotinylated H4K20Me1 peptide interaction at 5 to 25 uM by pull down assay based western blot analysis

[2] = target: TP53-binding protein 1 (Homo sapiens) (UniProt Q12888); assay: Effect on GST-fused 53BP1 Tudor domain (unknown origin)/biotinylated H4K20Me1 peptide interaction assessed as binding of 53BP1 to H4K20Me1 at 25 uM by pull down assay based western blot analysis
Sequence of TP53-binding protein 1 (Homo sapiens) (Q12888 whole entry, the tested form may be a part): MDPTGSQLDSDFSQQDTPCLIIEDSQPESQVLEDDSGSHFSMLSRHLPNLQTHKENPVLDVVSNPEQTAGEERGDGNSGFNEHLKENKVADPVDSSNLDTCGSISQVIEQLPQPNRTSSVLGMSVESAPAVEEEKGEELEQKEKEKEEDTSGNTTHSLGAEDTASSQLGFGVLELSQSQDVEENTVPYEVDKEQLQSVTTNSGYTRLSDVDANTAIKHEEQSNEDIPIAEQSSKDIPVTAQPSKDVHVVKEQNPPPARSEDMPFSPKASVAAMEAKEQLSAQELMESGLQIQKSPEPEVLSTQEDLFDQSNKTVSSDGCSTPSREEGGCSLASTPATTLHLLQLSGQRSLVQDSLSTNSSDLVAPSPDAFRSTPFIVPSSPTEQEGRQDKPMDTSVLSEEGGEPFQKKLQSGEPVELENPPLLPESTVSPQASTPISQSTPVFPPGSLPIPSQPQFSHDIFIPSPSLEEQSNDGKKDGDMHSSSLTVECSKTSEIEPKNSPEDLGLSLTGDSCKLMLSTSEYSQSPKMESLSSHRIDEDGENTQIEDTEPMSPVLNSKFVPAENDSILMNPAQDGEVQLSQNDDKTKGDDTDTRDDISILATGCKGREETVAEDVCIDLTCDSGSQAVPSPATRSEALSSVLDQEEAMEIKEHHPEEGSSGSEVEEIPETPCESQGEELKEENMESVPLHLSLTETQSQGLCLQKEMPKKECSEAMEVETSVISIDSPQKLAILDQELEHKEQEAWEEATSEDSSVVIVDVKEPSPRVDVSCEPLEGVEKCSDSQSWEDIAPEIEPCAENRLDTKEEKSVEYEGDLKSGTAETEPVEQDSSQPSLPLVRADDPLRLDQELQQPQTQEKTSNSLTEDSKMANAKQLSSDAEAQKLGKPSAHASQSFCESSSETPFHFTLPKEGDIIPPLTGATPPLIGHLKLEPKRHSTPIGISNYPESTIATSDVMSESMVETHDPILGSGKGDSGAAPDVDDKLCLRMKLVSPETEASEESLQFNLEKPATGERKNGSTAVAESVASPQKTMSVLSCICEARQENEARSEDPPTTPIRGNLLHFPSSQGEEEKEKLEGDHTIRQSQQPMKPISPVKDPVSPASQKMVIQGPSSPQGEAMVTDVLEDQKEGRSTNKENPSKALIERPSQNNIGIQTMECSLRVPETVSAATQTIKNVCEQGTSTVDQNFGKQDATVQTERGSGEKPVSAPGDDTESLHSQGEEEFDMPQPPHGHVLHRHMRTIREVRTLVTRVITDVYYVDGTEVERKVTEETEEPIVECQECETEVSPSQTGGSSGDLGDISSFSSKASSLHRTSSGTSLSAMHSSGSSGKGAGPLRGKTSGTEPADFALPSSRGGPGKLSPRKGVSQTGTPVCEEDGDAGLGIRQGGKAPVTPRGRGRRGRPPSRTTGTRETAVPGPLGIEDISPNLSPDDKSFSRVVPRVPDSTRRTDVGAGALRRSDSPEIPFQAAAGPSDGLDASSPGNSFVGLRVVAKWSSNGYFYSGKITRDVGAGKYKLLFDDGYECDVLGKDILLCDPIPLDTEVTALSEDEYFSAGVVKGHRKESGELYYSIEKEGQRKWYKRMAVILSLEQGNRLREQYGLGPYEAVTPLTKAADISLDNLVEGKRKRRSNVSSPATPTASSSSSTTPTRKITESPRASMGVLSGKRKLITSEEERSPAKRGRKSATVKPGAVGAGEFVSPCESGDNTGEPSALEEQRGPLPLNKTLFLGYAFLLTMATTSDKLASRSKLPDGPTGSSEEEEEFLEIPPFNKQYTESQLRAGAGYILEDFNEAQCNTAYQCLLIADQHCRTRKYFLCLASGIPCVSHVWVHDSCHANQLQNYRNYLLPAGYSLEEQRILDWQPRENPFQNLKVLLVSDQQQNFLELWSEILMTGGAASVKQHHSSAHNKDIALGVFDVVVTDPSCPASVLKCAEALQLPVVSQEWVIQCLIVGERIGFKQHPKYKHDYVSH

Row | SMILES | inhibition [1] | Activity [2] [%]
1 | O=C(c1cccc(Br)c1)N1CCC(N2CCCC2)CC1 | inactive | 106
2 | O=C(c1cccc(Br)c1)N1CCC(N2CCCCC2)CC1 | inactive | 91
